Measured values from ChEMBL document CHEMBL5136976, “A Perspective on Medicinal Chemistry Approaches for Targeting Pyruvate Kinase M2” (J Med Chem, 2022).

Pyruvate kinase PKM (Homo sapiens), P14618, sequence (P14618 whole entry): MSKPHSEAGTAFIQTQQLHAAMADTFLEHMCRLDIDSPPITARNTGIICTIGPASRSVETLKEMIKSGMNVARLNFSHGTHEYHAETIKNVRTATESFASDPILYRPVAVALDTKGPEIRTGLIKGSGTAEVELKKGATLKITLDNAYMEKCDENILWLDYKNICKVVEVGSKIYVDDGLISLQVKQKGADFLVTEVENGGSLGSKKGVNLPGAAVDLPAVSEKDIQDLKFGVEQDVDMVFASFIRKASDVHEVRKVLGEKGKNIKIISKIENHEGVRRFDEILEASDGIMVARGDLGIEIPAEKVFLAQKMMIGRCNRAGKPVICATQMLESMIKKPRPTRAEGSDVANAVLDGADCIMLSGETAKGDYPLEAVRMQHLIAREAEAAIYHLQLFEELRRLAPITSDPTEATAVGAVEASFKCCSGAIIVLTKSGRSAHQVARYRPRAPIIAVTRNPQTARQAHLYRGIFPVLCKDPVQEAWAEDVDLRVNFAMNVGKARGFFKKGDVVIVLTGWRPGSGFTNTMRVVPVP

These compounds were tested on CCc1nnc(SCc2ccccc2F)c2cc3sc(C)cc3n12 (assay: Binding affinity to PKM2 (unknown origin) assessed as Michaelis-constant). Conditions: Homo sapiens; filed as activator.
“Pyruvate kinase PKM (Homo sapiens), P14618” gave a Km of 480 µM.

The compounds below were run against Pyruvate kinase PKM (Homo sapiens) (UniProt P14618) (assay: Inhibition of PKM2 (unknown origin)). Conditions: concentration not given here.
Pyruvate kinase PKM (Homo sapiens), sequence (P14618 2-531 limits assumed): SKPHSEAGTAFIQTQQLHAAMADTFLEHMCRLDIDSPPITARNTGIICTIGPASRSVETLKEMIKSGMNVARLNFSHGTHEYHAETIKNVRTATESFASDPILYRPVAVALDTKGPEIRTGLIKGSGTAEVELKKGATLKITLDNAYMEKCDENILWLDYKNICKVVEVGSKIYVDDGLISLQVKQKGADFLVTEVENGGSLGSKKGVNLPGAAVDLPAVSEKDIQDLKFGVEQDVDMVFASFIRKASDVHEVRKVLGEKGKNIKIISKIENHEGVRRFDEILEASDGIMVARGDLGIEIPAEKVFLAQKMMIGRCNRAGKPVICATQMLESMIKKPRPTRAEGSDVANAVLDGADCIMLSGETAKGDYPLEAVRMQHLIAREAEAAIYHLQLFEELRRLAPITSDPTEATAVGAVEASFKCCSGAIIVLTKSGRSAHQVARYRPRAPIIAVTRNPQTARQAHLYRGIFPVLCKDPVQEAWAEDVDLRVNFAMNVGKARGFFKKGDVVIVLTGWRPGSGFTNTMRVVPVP
Set-up: concentration or dose not given beside the values
In the case of `N[C@@H](Cc1c[nH]c2ccccc12)C(=O)O`, the inhibition was 65%. Compound `CSCC[C@H](N)C(=O)O` has an inhibition of 65%. `O=C(O)[C@@H]1CCCN1` gave an inhibition of 65%. For `CC(C)[C@H](N)C(=O)O`, the inhibition was 65%. `C[C@@H](O)[C@H](N)C(=O)O` gave an inhibition of 20%. `CC[C@H](C)[C@H](N)C(=O)O` gave an inhibition of 20%. In the case of `N[C@@H](Cc1ccccc1)C(=O)O`, the inhibition was 100%. For `C[C@H](N)C(=O)O`, the inhibition was 100%. Compound `N[C@@H](CS)C(=O)O` has an inhibition of 20%.

Each compound was assayed against Pyruvate kinase PKM (Homo sapiens) (UniProt P14618) (assay: Inhibition of recombinant PKM2 (unknown origin) Asp178, Asp177, Ser362, Lys367, Hie78, Ser205, Gly128, Thr129, Tyr83, Asn75, Ile51 residues at 40 uM relative to control). Conditions: not given.
In the case of `O=C(O[C@@H]1Cc2c(O)cc(O)cc2O[C@@H]1c1cc(O)c(O)c(O)c1)c1cc(O)c(O)c(O)c1`, the inhibition was 49%.
